The experiment concerns reactive microglia. In words: PET/CT imaging of neuroinflammation in 5×FAD transgenic mice vs wild type. The conditions noted are these: 3.75 months of age. The class given is in vivo, mouse. The text has this: To further evaluate the ability of ^18F-OP-801 to image neuroinflammation in neurogenerative diseases, the 5×FAD transgenic mouse model was used. 5×FAD transgenic mice (B6SJL-Tg (APPSwFlLon,PSEN1*M146L*L286V)6799Vas) expressed human APP and PSEN1 transgenes developing amyloid plaque within a few months after birth and previous studies with TSPO PET radiotracers have only been able to detect neuroinflammation around 6 months (˜26 weeks) of age with a high TPSO affinity radiotracer, ^18F-GE180. 5×FAD female mice and age matched controls were used at 3.75 months of age to evaluate ^18F-OP-801 compared to the TPSO radiotracer, ^18F-GE180. ^18F-OP-801 ([…]) was injected as an IV bolus into wild type (n=7) and 5×FAD females (n=12) at 3.75 months of age. ^18F-GE180 (150-250 μCi) was administered to the 5×FAD transgenic (n=5) and wild type (n=4) female mice at 3.75 months of age. Static 10-minute PET/CT images were acquired at 50-60 minutes post-injection.

Structures are written as SMILES.

As for `CCN(CC)C(=O)[C@H]1CCCc2c1c1c(OC)cccc1n2CC[18F]` [^18F-GE180], the “PET signal in 5×FAD mice compared to wild type mice” value (50-60 minutes post-injection) is given as “minimal PET signal differences”. For the same molecule, under “5xFAD mice”, the “TG-to-WT ratio, Cortex” value worked out at 1.21; the “TG-to-WT ratio, Hippocampus” value is 1.24; the “TG-to-WT ratio, Whole Brain” value came out at 1.21.

(Values after US20240252695A9, “RADIOLABELED ETHER DENDRIMER CONJUGATES FOR PET IMAGING AND RADIOTHERAPY” (Ashvattha Therapeutics, Inc., priority 2020, published 2024).)
